This passage reports glass transition temperature results from the PolyMetriX glass transition set.

As for `*C/C(C)=C/C(C)S(*)(=O)=O` (repeat unit), the glass transition temperature stood at 83.00 °C.
To `*C1CCC(CC2CCC(N3C(=O)c4ccc(-c5ccc6c(c5)C(=O)N(*)C6=O)cc4C3=O)CC2)CC1` (repeat unit) belongs 242.00 °C.
To `*CC1CC2CC1C1CCC(CN3C(=O)c4ccc(-c5ccc6c(c5)C(=O)N(*)C6=O)cc4C3=O)C21` (repeat unit) belongs 230.00 °C; to `*CC1CCCC(CN2C(=O)c3ccc(C(c4ccc5c(c4)C(=O)N(*)C5=O)(C(F)(F)F)C(F)(F)F)cc3C2=O)C1` (repeat unit), 222.00 °C.
To `*CCCCCCCCCCCCN1C(=O)c2ccc(C(c3ccc4c(c3)C(=O)N(CCCCCCCCCCCCN3C(=O)c5ccc6c7ccc8c9c(ccc(c%10ccc(c5c6%10)C3=O)c97)C(=O)N(*)C8=O)C4=O)(C(F)(F)F)C(F)(F)F)cc2C1=O` (repeat unit) belongs 170.00 °C; to `*CCCc1nc2cc(-c3ccc4[nH]c(*)nc4c3)ccc2[nH]1` (repeat unit), 275.00 °C; to `*CCN(CCN1C(=O)c2ccc(C(c3ccc4c(c3)C(=O)N(*)C4=O)(C(F)(F)F)C(F)(F)F)cc2C1=O)c1ccc(/N=N/c2ccc(C3OCCO3)cc2)cc1` (repeat unit), 178.00 °C.
`*CN1C(=O)c2ccc(C(c3ccc4c(c3)C(=O)N(Cc3nc5cc(-c6ccc7oc(*)nc7c6)ccc5o3)C4=O)(C(F)(F)F)C(F)(F)F)cc2C1=O` (repeat unit) showed a glass transition temperature of 231.00 °C.
As to `*CN1C(=O)c2ccc(C(c3ccc4c(c3)C(=O)N(Cc3nnc(-c5ccc(-c6nnc(*)o6)c(Oc6ccccc6)c5)o3)C4=O)(C(F)(F)F)C(F)(F)F)cc2C1=O` (repeat unit), the glass transition temperature came to 208.00 °C.
Compound `*CN1C(=O)c2ccc(C(c3ccc4c(c3)C(=O)N(Cc3nnc(-c5ccc(-c6nnc(*)o6)cc5)o3)C4=O)(C(F)(F)F)C(F)(F)F)cc2C1=O` (repeat unit) showed a glass transition temperature of 214.00 °C.
To `*CN1C(=O)c2ccc(C(c3ccc4c(c3)C(=O)N(Cc3nnc(-c5ccc(Oc6ccc(-c7nnc(*)o7)cc6)cc5)o3)C4=O)(C(F)(F)F)C(F)(F)F)cc2C1=O` (repeat unit) belongs 210.00 °C; to `*Oc1ccc(C(=O)c2cccc(C(=O)c3ccc(Oc4ccc(Cc5ccc(*)cc5)cc4)cc3)c2)cc1` (repeat unit), 145.00 °C.
With `*Oc1ccc(C(C)(C)c2ccc(Oc3nc(*)nc(Cl)n3)cc2)cc1` (repeat unit), the glass transition temperature came to 80.00 °C.
In turn, `*Oc1ccc(C(c2ccc(Oc3ccc(C(=O)c4cccc(C(=O)c5ccc(*)cc5)c4)cc3)cc2)(C(F)(F)F)C(F)(F)F)cc1` (repeat unit) yielded a glass transition temperature of 168.10 °C.
To `*Oc1ccc(C2(c3ccc(Oc4ccc(C(=O)c5cccc(C(=O)c6ccc(*)cc6)c5)cc4)cc3)c3ccccc3-c3ccccc32)cc1` (repeat unit) belongs 223.00 °C; to `*Oc1ccc(C2(c3ccc(Oc4ccc5c(=O)n6c7cc(-c8ccc9c(c8)nc8c%10ccc(*)c%11cccc(c(=O)n98)c%11%10)ccc7nc6c6cccc4c56)cc3)c3ccccc3C(=O)c3ccccc32)cc1` (repeat unit), 428.00 °C; to `*c1cc(Br)c(Oc2c(Br)cc(N3C(=O)c4ccc(S(=O)(=O)c5ccc6c(c5)C(=O)N(*)C6=O)cc4C3=O)cc2Br)c(Br)c1` (repeat unit), 328.00 °C.
To `*c1ccc(*)c(C(=O)c2ccccc2)c1` (repeat unit) belongs 180.00 °C; to `*c1ccc(C2(c3ccc(N4C(=O)c5ccc(S(=O)(=O)c6ccc7c(c6)C(=O)N(*)C7=O)cc5C4=O)cc3)c3ccccc3-c3ccccc32)cc1` (repeat unit), 392.00 °C.
For `*c1ccc(Cc2ccc(N3C(=O)c4ccc([Si](C)(C)c5ccc([Si](C)(C)c6ccc7c(c6)C(=O)N(*)C7=O)cc5)cc4C3=O)cc2)cc1` (repeat unit) the value was 295.00 °C.
`*c1ccc(N2C(=O)c3ccc(-c4ccc5c(c4)C(=O)N(*)C5=O)cc3C2=O)cc1` (repeat unit): the glass transition temperature is 341.00 °C.
Take `*c1ccc(N2C(=O)c3ccc(P(=O)(c4ccccc4)c4ccc5c(c4)C(=O)N(*)C5=O)cc3C2=O)cc1` (repeat unit): the glass transition temperature was found to be 366.00 °C.
Take `*c1ccc(Oc2ccc(C(=O)c3cccc(C(=O)c4ccc(Oc5ccc(-n6c(=O)c7cc8c(=O)n(*)c(=O)c8cc7c6=O)cc5)cc4)c3)cc2)cc1` (repeat unit): the glass transition temperature was 247.00 °C.
To `*c1ccc(Oc2ccc(C(=O)c3cccc(C(=O)c4ccc(Oc5ccc(-n6c(=O)c7cc8c(=O)n(*)c(=O)c8cc7c6=O)cc5)cc4)n3)cc2)cc1` (repeat unit) belongs 324.60 °C; to `*c1ccc(Oc2ccc(C3(c4ccc(Oc5ccc(N6C(=O)c7ccc(Oc8ccc(C9(c%10ccc(Oc%11ccc%12c(c%11)C(=O)N(*)C%12=O)cc%10)CCC(C(C)(C)C)CC9)cc8)cc7C6=O)cc5)cc4)C4CC5CC(C4)CC3C5)cc2)cc1` (repeat unit), 266.00 °C.
For `*c1ccc(Oc2ccc(N3C(=O)c4cccc(Oc5ccc(C(C)(C)c6ccc(Oc7cccc8c7C(=O)N(*)C8=O)cc6)cc5)c4C3=O)cc2)cc1` (repeat unit) the value was 235.00 °C; for `*c1ccc(Oc2ccc3ccc(Oc4ccc(-c5nc(*)nc(-c6ccccc6)n5)cc4)cc3c2)cc1` (repeat unit), 255.00 °C; for `*c1ccc(Oc2ccc3ccc(Oc4ccc(N5C(=O)CC(=O)N(*)C5=S)cc4)cc3c2)cc1` (repeat unit), 151.50 °C.
To `*c1ccc(Oc2cccc(Oc3ccc(N4C(=O)CC(=O)N(*)C4=S)cc3)c2)cc1` (repeat unit) belongs 145.00 °C; to `*c1ccc(Oc2cccc(Oc3ccc(N4C(=O)c5ccc(Oc6ccc(C(C)(C)c7ccc(Oc8ccc9c(c8)C(=O)N(*)C9=O)cc7)cc6)cc5C4=O)cc3)c2C#N)cc1` (repeat unit), 213.00 °C.
`*c1ccc(Oc2ccccc2Oc2ccc(-n3c(=O)c4cc5c(=O)n(*)c(=O)c5cc4c3=O)cc2)cc1` (repeat unit) yielded a glass transition temperature of 313.00 °C.
Compound `*c1ccc(S(*)(=O)=O)cc1` (repeat unit) showed a glass transition temperature of 219.50 °C.
For `*c1ccc(S(=O)(=O)c2ccc(N3C(=O)c4ccc(Oc5ccc(C(C)(C)c6ccc(Oc7ccc8c(c7)C(=O)N(*)C8=O)cc6)cc5)cc4C3=O)cc2)cc1` (repeat unit) the value was 267.00 °C; for `*c1ccc(Sc2ccc(-c3nn(-c4ccc(S(=O)(=O)c5ccc(-n6nc(*)c7ccccc7c6=O)cc5)cc4)c(=O)c4ccccc34)cc2)cc1` (repeat unit), 279.00 °C.
For `*c1ccc(Sc2cccc(Sc3ccc(S(*)=O)cc3)c2)cc1` (repeat unit) the value was 121.00 °C; for `*c1ccc([Si](CCCC)(CCCC)[Si](*)(CCCC)CCCC)s1` (repeat unit), -53.00 °C; for `*c1ccc([Si](c2ccccc2)(c2ccccc2)c2ccc(-c3ccc4c(c3)c3cc(*)ccc3n4CCCCCC#N)cc2)cc1` (repeat unit), 165.00 °C.
To `*c1ccc2[nH]c(*)nc2c1` (repeat unit) belongs 398.00 °C; to `*c1ccc2c(c1)C(=O)N(C1CCC(N3C(=O)c4ccc(C(*)(C(F)(F)F)C(F)(F)F)cc4C3=O)CC1)C2=O` (repeat unit), 346.50 °C.
`*c1ccc2c(c1)C(=O)N(c1cc(Br)c(Oc3c(Br)cc(N4C(=O)c5ccc(C(*)(C(F)(F)F)C(F)(F)F)cc5C4=O)cc3Br)c(Br)c1)C2=O` (repeat unit) returned a glass transition temperature of 303.00 °C.
Turning to `*c1ccc2c(c1)C(=O)N(c1cc(C(c3ccc(OC(=O)C45CC6CC(CC(C6)C4)C5)c(N4C(=O)c5ccc(C(*)(C(F)(F)F)C(F)(F)F)cc5C4=O)c3)(C(F)(F)F)C(F)(F)F)ccc1OC(=O)C13CC4CC(CC(C4)C1)C3)C2=O` (repeat unit), the glass transition temperature stood at 305.00 °C.
The compound `*c1ccc2c(c1)C(=O)N(c1ccc(-c3ccc(N4C(=O)c5ccc(C(*)(c6ccccc6)C(F)(F)F)cc5C4=O)cc3C(F)(F)F)c(C(F)(F)F)c1)C2=O` (repeat unit) displayed a glass transition temperature of 280.00 °C.
To `*c1ccc2c(c1)C(=O)N(c1ccc(Cc3ccc(N4C(=O)c5ccc(C(F)(F)C(F)(F)C(*)(F)F)cc5C4=O)cc3)cc1)C2=O` (repeat unit) belongs 290.00 °C; to `*c1ccc2c(c1)C(=O)N(c1ccc(N3C(=O)c4ccc(-c5c(-c6ccccc6)c(-c6ccccc6)c(-c6ccc(Sc7ccc(-c8c(-c9ccccc9)c(-c9ccccc9)c(*)c(-c9ccccc9)c8-c8ccccc8)cc7)cc6)c(-c6ccccc6)c5-c5ccccc5)cc4C3=O)cc1)C2=O` (repeat unit), 344.00 °C; to `*c1ccc2c(c1)C(=O)N(c1ccc(Oc3ccc(C(=O)c4cccc(C(=O)c5ccc(Oc6ccc(N7C(=O)c8ccc(C(*)(C(F)(F)F)C(F)(F)F)cc8C7=O)cc6)cc5)n4)cc3)cc1)C2=O` (repeat unit), 226.90 °C.
The compound `*c1cccc(Cc2cccc(N3C(=O)c4ccc([Si](C)(C)c5ccc([Si](C)(C)c6ccc7c(c6)C(=O)N(*)C7=O)cc5)cc4C3=O)c2)c1` (repeat unit) showed a glass transition temperature of 246.00 °C.
In turn, `*c1cccc(N2C(=O)c3ccc(Oc4ccc(C(C)(C)c5ccc(Oc6ccc7c(c6)C(=O)N(*)C7=O)cc5)cc4)cc3C2=O)c1` (repeat unit) had a glass transition temperature of 217.50 °C.
For `*c1cccc(P(=O)(c2ccccc2)c2cccc(N3C(=O)c4ccc(Oc5ccc(C(C)(C)c6ccc(Oc7ccc8c(c7)C(=O)N(*)C8=O)cc6)cc5)cc4C3=O)c2)c1` (repeat unit) the value was 213.00 °C.
For `*c1cccc(P(C)(=O)c2cccc(N3C(=O)c4ccc(Oc5ccc(C(C)(C)c6ccc(Oc7ccc8c(c7)C(=O)N(*)C8=O)cc6)cc5)cc4C3=O)c2)c1` (repeat unit), the glass transition temperature came out at 228.00 °C.
